From patent US7816521B2, “1,2,4-benzotriazine-1,4-dioxides” (Auckland Uniservices Limited, priority 2004, dated 2010) come the findings set out here.

Data set [1] deals with HT29 multicellular layers. Format: in vitro ADME. The note with it: human. The protocol: A: Diagram of a Millicell® CM culture insert used for growing MCLs on a porous, collagen-coated Teflon membrane. B: H&E-stained transverse section of an HT-29 MCL three days after initiating growth with 10^6 cells. The Teflon membrane is ca 30 μm thick. C: Diffusion apparatus for measurement of transport through MCLs. D: Diffusion of TPZ (100 μM) through well oxygenated (open circles) and […] poorly oxygenated (filled circles) HT29 MCLs of equivalent thickness (141±5 μm). Concentrations are normalized to the initial concentration in the donor compartment (Co). The Lines are fits to a reaction-diffusion model. Also shown is the diffusion of compound #20 through a well oxygenated MCL of a similar thickness illustrating the effect of raising the diffusion coefficient from 4×10^−7 cm^2s^−1 to 1.4×10^−6 cm^2s^−1.
The diffusion coefficients in HT29 MCL (DMCL) of compounds representative of the invention were determined either by: • 1. Measurement of drug diffusion in HT29 MCL (grown in culture inserts and seeded at 1×10^6 cells per insert and grown for 3-4 days) in a 2 chamber diffusion apparatus containing culture medium with measurement from both the donor and receiver compartments and gassing at ≧20% O2 to suppress bioreductive metabolism as described in Hicks et al (Cancer Res. 2003, 63, 5970-5977). Samples of medium are taken at intervals, drug concentrations determined by HPLC or LCMS and the concentration-time profile was fitted to Fick's second law of diffusion and the differential equation was solved numerically to obtain the estimate of DMCL.
OR • 2. Calculated from the logistic regression equation
where • a. Log P7.4 is the base 10 logarithm of the octanol-water partition coefficient of the compound at pH 7.4 measured or calculated using the techniques described below • b. HD is the number of hydrogen bond donors (which is the sum of all NH— and OH-groups) • c. HA is the number of hydrogen bond acceptors (which is the sum of all N— and O-atoms) • d. Mr is the molecular weight of the non-ionised drug and a, g, d, a, x0, e, h, and b are regression coefficients as outlined in the table.
Values of the coefficient g are cell line dependent; this value has been determined as 0.3051 (SE 0.0427, CV 13.99%, p<0.001) for SiHa MCLs, and is set at zero for HT29 MCLs.

Another data set has as its system HT29 cells. As to the kind of experiment: First order rate constant for anoxic metabolism in HT29 cells (kmet). The note with it: rate constant of bioreductive metabolism, Table 1. The format is in vitro ADME, human. As for the experimental part:
The apparent first order rate constants for anoxic metabolism in HT29 cells (kmet) of compounds representative of the invention were either: • 1. Estimated at the C10 experimentally by incubating stirred single cell suspensions (typically 10 ml at 2×10^6/ml of HT29 cells derived by trypsinisation of multicellular spheroids) in αMEM without serum in 20 ml bottles under flowing 5% CO2/N2 for 90 min, then introducing the compound using deoxygenated DMSO stock solutions to give a range of final drug concentrations. Samples (0.5 ml) were removed at intervals (typically 5 min, 30 min, 1,2,3 hr), washed by centrifugation, and plated to determine the number of clonogenic survivors as described by Hicks et al Cancer Res. 2003 63, 5970. The concentration of compound giving 1 log of kill at 1 hr (C10) was estimated by interpolation. Additional samples taken at the same times were centrifuged to remove cells, and supernatant stored at −80° C. for subsequent HPLC or LCMS analysis. The concentration of compound in the extracellular medium was plotted against time and the concentration closest to the C10 was used to estimate the first order rate constant. This was scaled to MCL cell density as described in Hicks et al, Cancer Res. 2003, 63, 5970 to obtain kmet. Cell viability was determined with a hemocytometer at the end of drug exposure by staining with 0.4% trypan blue to ensure metabolic viability was >75%. TPZ (30 μM) was included in each experiment as a reference compound. O2, in solution was measured using an OxyLite O2 luminescent fiber optic probe (Oxford Optronix Ltd, UK) to ensure severe hypoxia (<0.1 μM).

Data set [2] is described as follows: Solubility in culture medium. The format is physicochemical. The note with it: culture medium (αMEM with 5% foetal bovine serum), plasma or biological fluid, thermodynamic from solid; culture medium (αMEM, 5% foetal bovine serum), pH 7.4; no unit in table, threshold is 2 mM. As for the experimental part:
Solubility is determined in laboratory culture medium (alpha minimal essential medium (αMEM) with 5% foetal bovine serum) saturated with 5% carbon dioxide at pH 7.4, by addition of excess compound and sonication at ambient temperature for 15 minutes. Alternatively the compound is diluted from a concentrated stock solution in DMSO into culture medium to give a final DMSO concentration <1%. The mixture is centrifuged at 13,000 rpm for 6 minutes and the concentration of drug in the supernatant solution is then determined by HPLC using a standard reference solution in a suitable solvent.

Data set [3] has as its system human colon carcinoma cell line HT-29. As to the kind of experiment: Proliferation assay (IC50) under aerobic and hypoxic conditions. The format is cell-based. The note with it: for IC50: Homo sapiens, HT-29, HT29, anoxic, 4 hr exposure; for HCR: hypoxic cytotoxicity ratio: aerobic IC50 / hypoxic IC50, HT29. The protocol: Compounds representative of the invention were evaluated under both aerobic and hypoxic conditions in a proliferation assay (IC50) using the human colon carcinoma cell line HT-29 as previously described [Hay et al, J. Med. Chem, 2003, 46, 169]. For each experiment, compounds were simultaneously tested under both oxic and hypoxic conditions and included TPZ as an independent internal control at the front and back of the assay. In all cases, a 8-methyl-5-nitroquinoline derivative was used as a second internal control to confirm that strict hypoxia was present during the experiment [Siim et al., Br. J. Cancer 1994, 70, 596].

Converted amounts (≈) assume the structure as drawn.

Turning to `CN(CCCNC(=O)c1cccc2ccc(-c3ccncc3)nc12)CCCNc1n[n+]([O-])c2ccccc2[n+]1[O-]` [M], the DMCL in data set [1] is given as 9.80 × 10^−8 cm^2s^−1. Further, the kmet with HT29 cells came out at 9.13 min⁻¹. Moreover, the solubility (usually the dissolved amount per volume that the medium holds) in data set [2] amounted to 3.8 mM (≈ 2050 µg/mL). Also, in data set [3], the IC50 (in general, the midpoint of a concentration-inhibition curve) was 0.125 µM and the HCR was 119.0.
For the compound `Nc1n[n+]([O-])c2ccccc2[n+]1[O-]` [A, tirapazamine, reference compound], in data set [1], the DMCL is 3.97 × 10^−7 cm^2s^−1. For the same compound, in data set [1] (100 μM), the diffusion coefficient is 4×10^−7 cm^2s^−1 and the “reduction in diffusion in poorly oxygenated versus well oxygenated HT29 MCLs” value is given as 2 fold. For the same compound, in the data set with HT29 cells, the kmet amounted to 0.60 min⁻¹. For the same compound, the concentration in solution in data set [2] (solubility) was 8.9 mM (≈ 1590 µg/mL).
`Cc1ccc2c(c1)[n+]([O-])c(NCCN(C)C)n[n+]2[O-]` [H, N^1,N^1-Dimethyl-N^2-(6-methyl-1,4-dioxido-1,2,4-benzotriazin-3-yl)-1,2-ethanediamine]: the DMCL in data set [1] is 3.99 × 10^−7 cm^2s^−1. The same compound returned a kmet in the data set with HT29 cells of 1.52 min⁻¹. Moreover, the solubility in data set [2] turned out to be 52 mM (≈ 13700 µg/mL). In data set [3], it took 1.85 µM to reach half-maximal inhibition (IC50) and the HCR is given as 159.0.
Turning to `CN(CCCNC(=O)c1cccc2cc3ccccc3nc12)CCCNc1n[n+]([O-])c2ccccc2[n+]1[O-]` [L], the DMCL in data set [1] was 3.82 × 10^−7 cm^2s^−1. The compound also showed a kmet in the data set on HT29 cells of 9.18 min⁻¹. This compound also yielded a solubility in data set [2] of 0.45 mM (≈ 230 µg/mL). In data set [3], the IC50 came out at 0.05 µM and the HCR was found to be 154.0.
For the compound `Cc1ccc2c(c1)[n+]([O-])nc(NCCN(C)C)[n+]2[O-]` [F, 7-Methyl-N-[2-(dimethylamino)ethyl]-1,2,4-benzotriazin-3-amine 1,4-Dioxide], the DMCL in data set [1] is reported as 5.09 × 10^−7 cm^2s^−1. The same compound had a kmet in the data set with HT29 cells of 2.54 min⁻¹. This compound also yielded a solubility in data set [2] of 38.7 mM (≈ 10200 µg/mL). In addition, in data set [3], the IC50 was 1.08 µM and the HCR stood at 34.3.
The matching figures for `[O-][n+]1nc(NCCCCCCNc2c3ccccc3nc3ccccc23)[n+]([O-])c2ccccc21` [K]: 6.17 × 10^−7 cm^2s^−1, 18.33 min⁻¹, 0.024 mM (≈ 10.9 µg/mL), 0.025 µM and 31.8.
The matching figures for `Cc1ccc2c(c1)[n+]([O-])c(N)n[n+]2[O-]` [B, 6-Methyl-1,2,4-benzotriazin-3-amine 1,4-Dioxide]: 5.43 × 10^−7 cm^2s^−1, 0.20 min⁻¹, 3.02 mM (≈ 580 µg/mL), 12.9 µM and 35.8.
The matching figures for `COCCc1n[n+]([O-])c2ccccc2[n+]1[O-]` [J]: 2.09 × 10^−6 cm^2s^−1, 2.01 min⁻¹, 21 mM (≈ 4650 µg/mL), 3.5 µM and 49.4.
With `Cc1ccc2c(c1)[n+]([O-])c(NCCCN(C)CCCNC(=O)c1cccc3cc4ccccc4nc13)n[n+]2[O-]` [N], the DMCL in data set [1] is recorded as 1.05 × 10^−7 cm^2s^−1. In the data set with HT29 cells, this compound registered a kmet of 4.74 min⁻¹. The same compound yielded a solubility in data set [2] of 32.4 mM (≈ 17000 µg/mL). Moreover, in data set [3], the IC50 stood at 0.225 µM and the HCR was 134.0.
`CCCN(CCC)CCNc1n[n+]([O-])c2ccccc2[n+]1[O-]` [G]: the DMCL in data set [1] was 1.71 × 10^−6 cm^2s^−1. Moreover, the kmet in the data set on HT29 cells was determined as 4.89 min⁻¹. The solubility in data set [2] was 26 mM (≈ 7940 µg/mL). In data set [3], the 50% inhibitory concentration (IC50) is 1.65 µM and the HCR is 81.6.
The matching figures for `Nc1n[n+]([O-])c2cc(Cl)ccc2[n+]1[O-]` [C, 7-Chloro-1,2,4-benzotriazin-3-amine 1,4-Dioxide]: 8.70 × 10^−7 cm^2s^−1, 3.92 min⁻¹, 0.09 mM (≈ 19.1 µg/mL), 0.73 µM and 28.5.
The matching figures for `Nc1n[n+]([O-])c2c(Cl)cccc2[n+]1[O-]` [D, 8-Chloro-1,2,4-benzotriazin-3-amine 1,4-Dioxide]: 6.69 × 10^−7 cm^2s^−1, 10.03 min⁻¹, 2.22 mM (≈ 472 µg/mL), 0.55 µM and 13.6.
For `CCc1n[n+]([O-])c2ccccc2[n+]1[O-]` [I], in data set [1], the DMCL is reported as 2.61 × 10^−6 cm^2s^−1. Besides, in the data set on HT29 cells, the kmet turned out to be 1.91 min⁻¹. For the same compound, in data set [2], the solubility stood at 14.5 mM (≈ 2770 µg/mL). In data set [3], the concentration for half-maximal inhibition (IC50) was 6.78 µM and the HCR stood at 54.2.
The matching figures for `CS(=O)(=O)c1ccc2c(c1)[n+]([O-])nc(N)[n+]2[O-]` [E, 7-(Methylsulfonyl)-1,2,4-benzotriazin-3-amine 1,4-Dioxide]: 2.13 × 10^−7 cm^2s^−1, 1.00 min⁻¹, 0.49 mM (≈ 126 µg/mL), 9.95 µM and 12.0.
